From US20200010910A1, “Cytotoxic Chemotherapy-Based Predictive Assays for Acute Myeloid Leukemia” (The Regents of The University of California, priority 2017, published 2020) come the findings set out here.

Each structure is given as a SMILES string. “And” between values parts separate entries of the source, which are not always exact repeats. Identical values can stand only once.

Usually IC50 stands for the concentration that inhibits the measured activity by half. A lower IC50 goes with higher potency. A word on the Cmax: it is the peak of the concentration-time curve.

In data set [1] the test system is A549, H1975 and HCC827. Kind of data set: carboplatin-DNA monoadducts by AMS, average of resistant NSCLC lines. The note with it: three resistant cell lines. It is filed as cell-based, human. The procedure:
NSCLC cell lines were cultured to >90% confluence, dosed with [^14C]carboplatin, and subjected to DNA isolation and AMS analysis. 60 mm dishes were seeded at a density of 1×10^6 cells/dish and allowed to attach overnight in a 37° C. humidified atmosphere containing 5% CO2. At hour 0, cells were dosed with 1 μM (relevant microdose concentration) or 100 μM carboplatin (therapeutically relevant concentration), each comprising 0.3 μM [^14C]carboplatin (50,000 dpm/ml). Cells were incubated with [^14C]carboplatin for 4 h before washing and cultured with carboplatin-free medium to mimic the in vivo carboplatin half-life (1.3-6 hours) in patients. DNA was harvested from the cell lines at hours 0, 2, 4, 8 and 24 hours after initial dosing. Ten micrograms of DNA per sample was converted to graphite and measured by AMS for ^14C/total C quantification. Triplicate sets of AMS experiments were performed for each cell line and time point. The 14C/total C ratio was converted to 14C atoms per DNA base-pair according to the algorithm described herein to provide values of carboplatin-DNA monoadducts per 10^8 nucleotides. The data was plotted as carboplatin-DNA monoadducts per 10^8 nucleotide (nt) vs time (FIGS. 8A and 8B). There was a time-dependent increase in the carboplatin-DNA monoadduct concentration during the first 4 hours of incubation with therapeutic or microdosing carboplatin (FIGS. 8A and 8B). […]

Data set [2] deals with 5637R. Kind of data set: MTT assay IC50, oxaliplatin-resistant bladder cancer sub-line. The settings on record: 5637R, 72 hours. Type of data set: cell-based, human. The procedure:
Drug-DNA adduct formation and repair was measured by accelerator mass spectrometry.
To confirm that 5637 was the original ATCC cell line, and that 5637R originated from the parental 5637 cell line, both cultures were sent to the ATCC Cell Line Authentication Service for cell verification per the ATCC protocol. More specifically, fifteen short tandem repeat (STR) loci plus the gender determining locus, amelogenin, were amplified using the commercially available PowerPlex® 16HS Kit from Promega.
These two cell lines were also cultured with a range of concentrations of cisplatin, carboplatin, gemcitabine, doxorubicin, methotrexate and vinblastine for 72 hours to determine IC50 for these other drugs (FIG. 16C). These drugs were chosen because of their frequent use in the treatment of bladder cancer.
(Tetrazolium assays rely on reduction of a dye to a coloured formazan, in cell work by metabolically active cells.)

The nature of data set [3]: carboplatin plasma pharmacokinetics in mice. Type of data set: in vivo, Balb/c mice. The procedure:
Balb/c mice received a bolus [^14C]carboplatin tail vein injection at microdose (0.373 mg/kg; 50,000 dpm/gm) or therapeutic dose (37.3 mg/kg; 50,000 dpm/gm). Mice were sacrificed in triplicate at 15 min, 1 h, 2 h, 8 h and 24 h. Concentrations of carboplatin in plasma were measured by liquid scintillation counting at each time point.

Data set [4] relates to PBMC. Kind of data set: microdose-induced carboplatin-DNA monoadducts in patients. It is filed as in vivo, human. The settings on record: for 4 h adducts PBMC / 24 h adducts PBMC: microdose; for lowest DNA monoadduct level observed: first nineteen patients, microdose 1% of therapeutic dose. The procedure:
Based upon the previous mouse studies that identified a minimal microdose for accurate AMS analysis of carboplatin monoadducts (1% of therapeutic carboplatin containing 50,000 DPM/gm of mouse body weight), the first in-human evaluation of microdose [^14C]carboplatin was conducted at this same equivalent formulation. The mouse radioactive dose (50,000 DPM/gm), adjusted for body surface area differences between mouse and humans, is equivalent to a dose of 1.0×10^7 DPM/kg of human body weight. The carboplatin dose for human chemotherapy is personalized to a patient's size and kidney function and is calculated using the Calvert formula with an AUC of 6 (Calvert, A. H., et al. “Carboplatin dosage: prospective evaluation of a simple formula based on renal function.” Journal of Clinical Oncology 7.11 (1989): 1748-1756). […] After blood collection, the BD Vacutainer CPT™ tubes were gently inverted several times to ensure mixing with heparin anticoagulant. The tubes were immediately placed on ice or stored at 4° C. and_then processed within 2 hours of collection to separate plasma and PBMC. For processing, the blood filled BD Vacutainer CPT™ tubes were centrifuged at room temperature in a horizontal rotor for 25 minutes at 1600×g. The top plasma layer was transferred to separate tubes and stored at or below −70° C. After most of the plasma was removed from the CPT tube, PBMC were transferred to another tube and washed three times with ice-cold phosphate-buffered solution (PBS). After pelleting the cells and removing the supernatant, the PBMC's were stored frozen at −80° C. until being processed to isolate DNA for determination of the carboplatin-DNA monoadduct frequency. Tumor samples were collected by biopsy or resection approximately 24 hours after administration of the [^14C]carboplatin microdose. These tumor specimens were placed in ice immediately after being obtained, washed three times with ice-cold PBS, and stored at or below −20° C. within 2 hours of collection. These frozen tumor samples were then processed at a later time to isolate DNA for determination of the carboplatin-DNA monoadduct frequency. To isolate DNA, tumor tissue was placed on ice in a sterile petri dish and minced with a sterile scalpel for approximately 30-90 sec per sample. Approximately 20-100 mg of tissue was then processed using the modified Wizard DNA isolation protocol as described previously.
Two lung and three bladder cancer patients were monitored post carboplatin therapeutic treatment to determine therapeutic outcome. Each patient was given a microdose of [^14C]carboplatin by IV injection. The microdose was 1% of therapeutic based upon Calvert calculation and formulated with [^14C]carboplatin at 1.0×10^7 DPM/kg of body weight. At time points of 2, 4, 8 and 24 hours, blood samples were taken from which PBMCs were isolated determination of carboplatin-DNA monoadduct frequency, and expressed as carboplatin-DNA monoadducts per 10^8 nucleotides (FIG. 13).
As we have shown in cell culture and mouse tumor xenograph experiments, the carboplatin-DNA monoadduct frequency is proportional to the dose and time integrated exposure to carboplatin. In this example we establish the useful range of carboplatin-DNA monoadduct frequencies in cancer patients receiving 1% of their therapeutic dose of carboplatin at a fixed time after microdose exposure. […] DNA from PBMC and tumor tissue was extracted and analyzed by AMS for carboplatin-DNA monoadduct frequency. […] Tumor carboplatin-DNA monoadduct frequencies ranged from 0.3 and 42.5 adducts per 10^8 nucleotides.

The mark [5] stands for this setting: Bladder cancer, individual patients.

In the case of `N.N.O=C([O-])C1(C(=O)[O-])CCC1.[Pt+2]` [carboplatin], the “average area under curve (AUC) of carboplatin-DNA monoadducts” value in data set [1] (microdosing) was 43.36±9.55 hr-monoadducts per 10^8 nt; in data set [1] (therapeutic dosing) it was 3916.7±1280.0 hr-monoadducts per 10^8 nt. In data set [2], this compound returned an IC50 of 72.2 µM. Further, the figures for the Cmax in data set [3] (microdose 0.373 mg/kg) and in data set [3] (therapeutic dose 37.3 mg/kg) were 1 µM and 127 ± 30 µM, respectively. The “initial T1/2” value in data set [3] (microdose 0.373 mg/kg bolus tail vein) and in data set [3] (therapeutic dose 37.3 mg/kg bolus tail vein) was 50 min in each case. Besides, the “4 h adducts PBMC” value in data set [4] (setting [5]) was 1.113 per 10^8 nt and 0.265 per 10^8 nt and 0.545 per 10^8 nt and 0.184 per 10^8 nt and 0.193 per 10^8 nt and 1.004 per 10^8 nt and 0.600 per 10^8 nt and 1.399 per 10^8 nt and 0.599 per 10^8 nt and 0.239 per 10^8 nt and 0.421 per 10^8 nt; in data set [4] (Hodgkin patient), 0.861 per 10^8 nt; in data set [4] (NSCLC, individual patients), 0.447 per 10^8 nt and 0.662 per 10^8 nt and 0.386 per 10^8 nt and 0.587 per 10^8 nt and 0.234 per 10^8 nt and 2.214 per 10^8 nt. Besides, the “24 h adducts PBMC” value was 0.443 per 10^8 nt and 0.081 per 10^8 nt and 0.930 per 10^8 nt and 0.154 per 10^8 nt and 0.283 per 10^8 nt and 0.968 per 10^8 nt and 0.499 per 10^8 nt and 0.485 per 10^8 nt and 0.329 per 10^8 nt and 0.978 per 10^8 nt in data set [4] (setting [5]); 0.472 per 10^8 nt in data set [4] (Hodgkin patient); 0.837 per 10^8 nt and 1.3 per 10^8 nt and 0.454 per 10^8 nt and 0.942 per 10^8 nt and 0.342 per 10^8 nt and 0.232 per 10^8 nt in data set [4] (NSCLC, individual patients). For the same compound, the “lowest DNA monoadduct level observed” value was roughly 3.2 monoadducts per cell in data set [4] and 0.05 adducts per 10^8 nucleotides in data set [4] (1.0×10^7 DPM/kg).
